Data set [1] relates to Staphylococcus aureus ATCC 25923. Nature of the data set: Antibacterial activity (CMI). The format is cell-based. As to conditions: Gram +. How it is done:
(§1) The antibacterial activity of MraY inhibitors 12a–12h was also evaluated against several bacterial strains. Gram-negative (E. coli ATCC 8730, C. freundii ATCC8090 and P. aeruginosa ATCC 27853) and Gram-positive pathogenic bacterial strains (S. aureus ATCC 25923 and E. faecium ATCC 19434), including a methicillin-resistant strain (S. aureus MRSA ATCC 43300), were selected as a representative of pathogen bacterial diversity. Piperacillin and vancomycin were used as positive control in the tests.
(§2) Antibacterial activity was determined as previously described, but molecules were solubilized in 100% DMSO (cell culture grade) at 1 mg/mL concentration and 10-fold diluted in MHB just before utilization. The MHB-diluted solutions were then serially diluted in 5% DMSO-MHB, at final concentrations ranging from […] for compounds and 6.25 to 5% for DMSO.
(§3) Table S1. Antibacterial activity of compounds 12a-12i, and reference compounds.
(§4) final concentration tested

Data set [2] has as its system Citrobacter freundii ATCC 8090. The experiment in a line: Antibacterial activity (CMI). The format is cell-based. Particulars: Gram -. As for the experimental part:
as §1, §2, §3, §4

The subject of data set [3] is Escherichia coli ATCC 8730. The experiment in a line: Antibacterial activity (CMI). The format is cell-based. As to conditions: Gram -. How it is done: as §1, §2, §3, §4
For data set [4], the system named is Staphylococcus aureus MRSA ATCC 43300. The experiment in a line: Antibacterial activity (CMI). The format is cell-based. Particulars: Gram +. As for the experimental part: as §1, §2, §3, §4
The test system of data set [5] is Enterococcus faecium ATCC 19434. The experiment in a line: Antibacterial activity (CMI). The format is cell-based. As to conditions: Gram +. How it is done: as §1, §2, §3, §4
The test system of data set [6] is Pseudomonas aeruginosa ATCC 27853. The experiment in a line: Antibacterial activity (CMI). The format is cell-based. Particulars: Gram -. How it is done:
as §1, §2, §3, §4

Data set [7] addresses T1, MraY transferase purified from Aquifex aeolicus (MraYAA) (Aquifex aeolicus, UniProt O66465).
T1 construct: His; made in house
The experiment in a line: Inhibition of MraYAA transferase activity. The format is biochemical. Particulars: for IC50: read-out: IC50 against MraYAA. As for the experimental part: The inhibitory activity of the synthesized compounds 12a–12j was evaluated on MraY transferase purified from Aquifex aeolicus (MraYAA) prepared as previously described by Chung et al.. Their activity (Table 4) was compared to the inhibitory activity of the N-triazole-containing inhibitor 13 (Figure 3) that we previously synthesized (Table 4). Commercially available tunicamycin from Streptomyces sp. was used as a positive control in the test.
The inhibitory activity of the synthesized compounds 1–5 was determined as described in reference except that compounds were tested at a final concentration of 10% DMSO. The compounds were evaluated on His-tagged MraY transferase purified from Aquifex aeolicus (MraYAA) prepared as previously described by Chung et al.. The assays were performed as previously described by Stachyra et al..

A short description of data set [8]: Solubility in 5%DMSO-water (culture media). The format is physicochemical. Particulars: at the highest final concentration tested. As for the experimental part:
as §2, §3, §4

The mark [9] stands for this setting: final concentration of 10% DMSO, triplicate, repeated at least twice (tunicamycin tested twice).

“Also recorded” adds a separate entry of the source.

By IC50 is commonly meant the concentration needed to halve the response being measured.

T1 sequence (O66465 whole entry): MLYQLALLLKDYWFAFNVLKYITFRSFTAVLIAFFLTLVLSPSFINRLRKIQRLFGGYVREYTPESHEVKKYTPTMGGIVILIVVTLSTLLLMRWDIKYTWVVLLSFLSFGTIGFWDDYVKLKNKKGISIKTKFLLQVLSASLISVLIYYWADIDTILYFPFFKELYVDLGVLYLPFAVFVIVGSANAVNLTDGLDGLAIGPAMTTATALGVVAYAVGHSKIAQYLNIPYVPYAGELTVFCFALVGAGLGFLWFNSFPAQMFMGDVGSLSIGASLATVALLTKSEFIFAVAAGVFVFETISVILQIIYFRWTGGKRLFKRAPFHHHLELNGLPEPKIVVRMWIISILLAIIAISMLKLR

In the case of `CCCCCCCCCCC(CCCCCCCCCC)c1nc(C[C@H](O[C@@H]2O[C@H](CN)[C@@H](O)[C@H]2O)[C@H]2O[C@@H](n3ccc(=O)[nH]c3=O)[C@H](O)[C@@H]2O)no1.O=C(O)C(F)(F)F` [Compound 12i], the CMI in data set [1], in data set [2], in data set [3], in data set [4], in data set [5] and in data set [6] was greater than 50 µg/mL throughout. In addition, the “IC50 against MraYAA” value in data set [7] (setting [9]) was “no activity; also recorded: N.I. ^e”. Also, the “solubility in 5%DMSO-water (culture media)” value (from here on “solubility in 5%DMSO-water”) in data set [8] was “insoluble”.

As to `CN[C@H](CC(C)C)C(=O)N[C@H]1C(=O)N[C@@H](CC(N)=O)C(=O)N[C@H]2C(=O)N[C@H]3C(=O)N[C@H](C(=O)N[C@H](C(=O)O)c4cc(O)cc(O)c4-c4cc3ccc4O)[C@H](O)c3ccc(c(Cl)c3)Oc3cc2cc(c3O[C@@H]2O[C@H](CO)[C@@H](O)[C@H](O)[C@H]2O[C@H]2C[C@](C)(N)[C@H](O)[C@H](C)O2)Oc2ccc(cc2Cl)[C@H]1O` [Vancomycin, reference compound], the figures for the CMI in data set [1], in data set [4] and in data set [5] were 1 µg/mL, 1 µg/mL and 0.5 µg/mL, respectively.

Regarding `CCCCCCCCCCCCCCCCCCc1nc(C[C@H](O[C@@H]2O[C@H](CN)[C@@H](O)[C@H]2O)[C@H]2O[C@@H](n3ccc(=O)[nH]c3=O)[C@H](O)[C@@H]2O)no1.O=C(O)C(F)(F)F` [Compound 12c], the CMI was 50 µg/mL in data set [1]; greater than 50 µg/mL in data set [2]; greater than 50 µg/mL in data set [3]; 50 µg/mL in data set [4]; 50 µg/mL in data set [5]; greater than 50 µg/mL in data set [6]. In addition, the IC50 in data set [7] (setting [9]) was found to be 15.8 ± 1 µM. For the same molecule, the “solubility in 5%DMSO-water” value in data set [8] was “insoluble”.

As to Tunicamycin [reference compound], the IC50 in data set [7] (setting [9]) is 0.026 µM.

In the case of `CCCCCCCCCC(C(=O)OCC)c1nc(C[C@H](O[C@@H]2O[C@H](CN)[C@@H](O)[C@H]2O)[C@H]2O[C@@H](n3ccc(=O)[nH]c3=O)[C@H](O)[C@@H]2O)no1` (mixture of isomers) [Compound 12h], the CMI in data set [1], in data set [2], in data set [3], in data set [4], in data set [5] and in data set [6] was greater than 50 µg/mL in each case. In data set [7] (setting [9]), the IC50 is 27.5 ± 0.7 µM.

In the case of `CCCCCCCCCCc1cn(C[C@H](O[C@@H]2O[C@H](CN)[C@@H](O)[C@H]2O)[C@H]2O[C@@H](n3ccc(=O)[nH]c3=O)[C@H](O)[C@@H]2O)nn1` [Compound 13, reference compound], the IC50 in data set [7] (setting [9]) worked out at 1.1 µM.

For `CCCCCCCCCC(C(=O)O)c1nc(C[C@H](O[C@@H]2O[C@H](CN)[C@@H](O)[C@H]2O)[C@H]2O[C@@H](n3ccc(=O)[nH]c3=O)[C@H](O)[C@@H]2O)no1` (some centres unmarked) [Compound 12j], the IC50 in data set [7] (setting [9]) is 2.9 ± 0.6 µM. For the same molecule, in data set [7] (relative to parent ethyl ester (12h), MraYAA), the “activity relative to the parent ester” value is “almost tenfold more active”.

Regarding `CCCCCCCC/C=C/CCCCCCCc1nc(C[C@H](O[C@@H]2O[C@H](CN)[C@@H](O)[C@H]2O)[C@H]2O[C@@H](n3ccc(=O)[nH]c3=O)[C@H](O)[C@@H]2O)no1.O=C(O)C(F)(F)F` [Compound 12f], the CMI is 50 µg/mL in data set [1]; greater than 50 µg/mL in data set [2]; greater than 50 µg/mL in data set [3]; 50 µg/mL in data set [4]; 50 µg/mL in data set [5]; greater than 50 µg/mL in data set [6]. For the same molecule, the IC50 in data set [7] (setting [9]) turned out to be 17.3 ± 0.3 µM. Besides, in data set [8], the “solubility in 5%DMSO-water” value is “insoluble”.

As for `NC[C@H]1O[C@@H](O[C@@H](Cc2noc(-c3ccc(Oc4ccccc4)cc3)n2)[C@H]2O[C@@H](n3ccc(=O)[nH]c3=O)[C@H](O)[C@@H]2O)[C@H](O)[C@@H]1O.O=C(O)C(F)(F)F` [Compound 12e], the CMI in data set [1], in data set [2], in data set [3], in data set [4], in data set [5] and in data set [6] was greater than 50 µg/mL each time. Besides, the IC50 in data set [7] (setting [9]) is 3.2 ± 0.2 µM.

Turning to `CCCCCCCCCCCCCCCc1nc(C[C@H](O[C@@H]2O[C@H](CN)[C@@H](O)[C@H]2O)[C@H]2O[C@@H](n3ccc(=O)[nH]c3=O)[C@H](O)[C@@H]2O)no1.O=C(O)C(F)(F)F` [Compound 12b], the CMI in data set [1], in data set [2], in data set [3], in data set [4], in data set [5] and in data set [6] was greater than 50 µg/mL in each case. In addition, the IC50 in data set [7] (setting [9]) turned out to be 9.3 ± 0.2 µM.

As to `CCN1CCN(C(=O)N[C@@H](C(=O)N[C@@H]2C(=O)N3[C@@H]2SC(C)(C)[C@@H]3C(=O)O)c2ccccc2)C(=O)C1=O` [Piperacillin, reference compound], the CMI was 4 µg/mL in data set [1]; 4 µg/mL in data set [2]; 4 µg/mL in data set [3]; greater than 128 µg/mL in data set [4]; 4 µg/mL in data set [5]; 8 µg/mL in data set [6].

As for `CCCCCCCCCCc1nc(C[C@H](O[C@@H]2O[C@H](CN)[C@@H](O)[C@H]2O)[C@H]2O[C@@H](n3ccc(=O)[nH]c3=O)[C@H](O)[C@@H]2O)no1.O=C(O)C(F)(F)F` [Compound 12a], the CMI in data set [1], in data set [2], in data set [3], in data set [4], in data set [5] and in data set [6] was greater than 50 µg/mL throughout. For the same molecule, the IC50 in data set [7] (setting [9]) worked out at 0.8 ± 0.1 µM.

As to `CCCCCCCC/C=C\CCCCCCCc1nc(C[C@H](O[C@@H]2O[C@H](CN)[C@@H](O)[C@H]2O)[C@H]2O[C@@H](n3ccc(=O)[nH]c3=O)[C@H](O)[C@@H]2O)no1.O=C(O)C(F)(F)F` [Compound 12d], the CMI in data set [1], in data set [2], in data set [3], in data set [4], in data set [5] and in data set [6] was greater than 50 µg/mL each time. The IC50 in data set [7] (setting [9]) amounted to 18.9 ± 0.9 µM. Further, the “solubility in 5%DMSO-water” value in data set [8] was “insoluble”.

As for `NC[C@H]1O[C@@H](O[C@@H](Cc2noc(CCCCCCCCCc3ccccc3)n2)[C@H]2O[C@@H](n3ccc(=O)[nH]c3=O)[C@H](O)[C@@H]2O)[C@H](O)[C@@H]1O.O=C(O)C(F)(F)F` [Compound 12g], the CMI in data set [1], in data set [2], in data set [3], in data set [4], in data set [5] and in data set [6] was greater than 50 µg/mL in each case. Further, in data set [7] (setting [9]), the IC50 amounted to 5.8 ± 0.1 µM.
